Test system: 521955-158-R2-J5-PDC complex spheroid growth
Test: Anticancer human tumor 521955-158-R2-J5-PDC patient-derived pancreatic carcinoma cell line growth inhibition [AhR]
Conditions: for IC50: curve of first compound; for viability, T/C: stronger effect = lower value
Outline: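 Spheroids combined tumor cells with HUVEC endothelial cells and human MSCs as stroma. AhR antagonists were paired with standard or investigational drugs, each dosed in half-log steps down from near clinical Cmax, or from 10 microM where Cmax was unknown.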

[1] = second compound 0.1 µM, first compound 0.0316 µM
[2] = second compound 0.1 µM, first compound 0.1 µM
[3] = second compound 0.1 µM, first compound 0.316 µM
[4] = second compound 0.1 µM, first compound 1 µM
[5] = second compound 0.1 µM, first compound 3.16 µM
[6] = second compound 0.1 µM, first compound 10 µM
[7] = second compound 0.316 µM, first compound 0.0316 µM
[8] = second compound 0.316 µM, first compound 0.1 µM
[9] = second compound 0.316 µM, first compound 0.316 µM
[10] = second compound 0.316 µM, first compound 1 µM
[11] = second compound 0.316 µM, first compound 3.16 µM
[12] = second compound 0.316 µM, first compound 10 µM
[13] = second compound 1 µM, first compound 0.0316 µM
[14] = second compound 1 µM, first compound 0.1 µM
[15] = second compound 1 µM, first compound 0.316 µM
[16] = second compound 1 µM, first compound 1 µM
[17] = second compound 1 µM, first compound 3.16 µM
[18] = second compound 1 µM, first compound 10 µM
[19] = second compound 3.16 µM, first compound 0.0316 µM
[20] = second compound 3.16 µM, first compound 0.1 µM
[21] = second compound 3.16 µM, first compound 0.316 µM
[22] = second compound 3.16 µM, first compound 1 µM
[23] = second compound 3.16 µM, first compound 3.16 µM
[24] = second compound 3.16 µM, first compound 10 µM
[25] = second compound 10 µM, first compound 0.0316 µM
[26] = second compound 10 µM, first compound 0.1 µM
[27] = second compound 10 µM, first compound 0.316 µM
[28] = second compound 10 µM, first compound 1 µM
[29] = second compound 10 µM, first compound 3.16 µM
[30] = second compound 10 µM, first compound 10 µM
[31] = second compound 0.1 µM, first compound 0.00316 µM
[32] = second compound 0.1 µM, first compound 0.01 µM
[33] = second compound 0.316 µM, first compound 0.00316 µM
[34] = second compound 0.316 µM, first compound 0.01 µM
[35] = second compound 1 µM, first compound 0.00316 µM
[36] = second compound 1 µM, first compound 0.01 µM
[37] = second compound 3.16 µM, first compound 0.00316 µM
[38] = second compound 3.16 µM, first compound 0.01 µM
[39] = second compound 10 µM, first compound 0.00316 µM
[40] = second compound 10 µM, first compound 0.01 µM
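For viability, T/C in this document: spheroids mix tumor cells with HUVEC endothelium and human MSC stroma; luminescence taken as viability surrogate after a week of drug exposure.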

SMILES: CC(C)c1c(-c2ccccc2)nc2c(C#N)c[nH]n2c1=O + Cc1ccccc1N=Nc1ccc(NC(=O)c2ccnn2C)c(C)c1
- IC50 (second compound 0.1 µM): > 10000 nM
- IC50 (second compound 0.316 µM): > 10000 nM
- IC50 (second compound 1 µM): > 10000 nM
- IC50 (second compound 3.16 µM): > 10000 nM
- IC50 (second compound 10 µM): > 10000 nM
- viability, T/C [1]: 98.1%
- viability, T/C [2]: 125%
- viability, T/C [3]: 80.3%
- viability, T/C [4]: 94.7%
- viability, T/C [5]: 81.2%
- viability, T/C [6]: 97.8%
- viability, T/C [7]: 115%
- viability, T/C [8]: 95.1%
- viability, T/C [9]: 110%
- viability, T/C [10]: 81.5%
- viability, T/C [11]: 82%
- viability, T/C [12]: 81.6%
- viability, T/C [13]: 88.7%
- viability, T/C [14]: 101%
- viability, T/C [15]: 102%
- viability, T/C [16]: 87.8%
- viability, T/C [17]: 92.6%
- viability, T/C [18]: 97.8%
- viability, T/C [19]: 128%
- viability, T/C [20]: 125%
- viability, T/C [21]: 127%
- viability, T/C [22]: 114%
- viability, T/C [23]: 114%
- viability, T/C [24]: 114%
- viability, T/C [25]: 141%
- viability, T/C [26]: 130%
- viability, T/C [27]: 132%
- viability, T/C [28]: 123%
- viability, T/C [29]: 114%
- viability, T/C [30]: 103%

SMILES: CC1COCCN1c1cc(-c2ccnn2C)c2ccnc(-c3ccn[nH]3)c2n1 (stereo not given) + Cc1ccccc1N=Nc1ccc(NC(=O)c2ccnn2C)c(C)c1
- IC50 (second compound 0.1 µM): 149 nM
- IC50 (second compound 0.316 µM): 154 nM
- IC50 (second compound 1 µM): 152 nM
- IC50 (second compound 3.16 µM): 143 nM
- IC50 (second compound 10 µM): 101 nM
- viability, T/C [31]: 128%
- viability, T/C [32]: 116%
- viability, T/C [1]: 122%
- viability, T/C [2]: 66.6%
- viability, T/C [3]: 19.4%
- viability, T/C [4]: 17.9%
- viability, T/C [33]: 122%
- viability, T/C [34]: 116%
- viability, T/C [7]: 127%
- viability, T/C [8]: 70%
- viability, T/C [9]: 17.9%
- viability, T/C [10]: 15.2%
- viability, T/C [35]: 123%
- viability, T/C [36]: 138%
- viability, T/C [13]: 109%
- viability, T/C [14]: 71%
- viability, T/C [15]: 14.2%
- viability, T/C [16]: 13.8%
- viability, T/C [37]: 144%
- viability, T/C [38]: 131%
- viability, T/C [19]: 145%
- viability, T/C [20]: 66.4%
- viability, T/C [21]: 13.4%
- viability, T/C [22]: 14.2%
- viability, T/C [39]: 134%
- viability, T/C [40]: 154%
- viability, T/C [25]: 108%
- viability, T/C [26]: 54.5%
- viability, T/C [27]: 12.4%
- viability, T/C [28]: 15.4%

SMILES: COc1ccc([C@@H](O)c2cc(-c3ncnc4cc(N5CCOCC5)ccc34)c(F)cc2Cl)nn1 + Cc1ccccc1N=Nc1ccc(NC(=O)c2ccnn2C)c(C)c1
- IC50 (second compound 0.1 µM): > 10000 nM
- IC50 (second compound 0.316 µM): > 10000 nM
- IC50 (second compound 1 µM): > 10000 nM
- IC50 (second compound 3.16 µM): > 10000 nM
- IC50 (second compound 10 µM): > 10000 nM
- viability, T/C [1]: 116%
- viability, T/C [2]: 98.5%
- viability, T/C [3]: 75.9%
- viability, T/C [4]: 78.1%
- viability, T/C [5]: 67.1%
- viability, T/C [6]: 48.3%
- viability, T/C [7]: 98.8%
- viability, T/C [8]: 96.3%
- viability, T/C [9]: 93.5%
- viability, T/C [10]: 89.9%
- viability, T/C [11]: 72.8%
- viability, T/C [12]: 56.6%
- viability, T/C [13]: 109%
- viability, T/C [14]: 133%
- viability, T/C [15]: 108%
- viability, T/C [16]: 97.2%
- viability, T/C [17]: 84.4%
- viability, T/C [18]: 59%
- viability, T/C [19]: 139%
- viability, T/C [20]: 117%
- viability, T/C [21]: 128%
- viability, T/C [22]: 101%
- viability, T/C [23]: 91.3%
- viability, T/C [24]: 54.3%
- viability, T/C [25]: 142%
- viability, T/C [26]: 136%
- viability, T/C [27]: 142%
- viability, T/C [28]: 105%
- viability, T/C [29]: 88.9%
- viability, T/C [30]: 49.9%

SMILES: COc1cccc2c1C(=O)c1c(O)c3c(c(O)c1C2=O)CC(O)(C(=O)CO)CC3OC1CC(N)C(O)C(C)O1 (stereo not given) + Cc1cncc(-c2nc(NCCc3c[nH]c4ccccc34)c3ncn(C(C)C)c3n2)c1
- IC50 (second compound 0.1 µM): < 31.6 nM
- IC50 (second compound 0.316 µM): < 31.6 nM
- IC50 (second compound 1 µM): < 31.6 nM
- IC50 (second compound 3.16 µM): 72.6 nM
- IC50 (second compound 10 µM): 108 nM
- viability, T/C [1]: 53.6%
- viability, T/C [2]: 35.6%
- viability, T/C [3]: 36.2%
- viability, T/C [4]: 2.01%
- viability, T/C [5]: 6.72%
- viability, T/C [6]: 11.6%
- viability, T/C [7]: 49%
- viability, T/C [8]: 35%
- viability, T/C [9]: 39.2%
- viability, T/C [10]: 0.95%
- viability, T/C [11]: 6.23%
- viability, T/C [12]: 14.8%
- viability, T/C [13]: 51.2%
- viability, T/C [14]: 30.6%
- viability, T/C [15]: 46.8%
- viability, T/C [16]: 1.72%
- viability, T/C [17]: 5.39%
- viability, T/C [18]: 16.6%
- viability, T/C [19]: 64.2%
- viability, T/C [20]: 37.3%
- viability, T/C [21]: 41.3%
- viability, T/C [22]: 2.7%
- viability, T/C [23]: 8.4%
- viability, T/C [24]: 12.2%
- viability, T/C [25]: 64.2%
- viability, T/C [26]: 48.4%
- viability, T/C [27]: 29%
- viability, T/C [28]: 0.47%
- viability, T/C [29]: 3.33%
- viability, T/C [30]: 9.06%

SMILES: Nc1ncn(C2CC(O)C(CO)O2)c(=O)n1 (stereo not given) + Cc1cncc(-c2nc(NCCc3c[nH]c4ccccc34)c3ncn(C(C)C)c3n2)c1
- IC50 (second compound 0.1 µM): 936 nM
- IC50 (second compound 0.316 µM): > 1000 nM
- IC50 (second compound 1 µM): > 1000 nM
- IC50 (second compound 3.16 µM): > 1000 nM
- IC50 (second compound 10 µM): > 1000 nM
- viability, T/C [31]: 92.4%
- viability, T/C [32]: 84.2%
- viability, T/C [1]: 101%
- viability, T/C [2]: 95.4%
- viability, T/C [3]: 79.6%
- viability, T/C [4]: 48.2%
- viability, T/C [33]: 102%
- viability, T/C [34]: 99%
- viability, T/C [7]: 96.4%
- viability, T/C [8]: 82.7%
- viability, T/C [9]: 63.9%
- viability, T/C [10]: 55.7%
- viability, T/C [35]: 112%
- viability, T/C [36]: 117%
- viability, T/C [13]: 121%
- viability, T/C [14]: 93.9%
- viability, T/C [15]: 82.3%
- viability, T/C [16]: 57.5%
- viability, T/C [37]: 148%
- viability, T/C [38]: 123%
- viability, T/C [19]: 145%
- viability, T/C [20]: 119%
- viability, T/C [21]: 115%
- viability, T/C [22]: 79.8%
- viability, T/C [39]: 141%
- viability, T/C [40]: 110%
- viability, T/C [25]: 152%
- viability, T/C [26]: 124%
- viability, T/C [27]: 135%
- viability, T/C [28]: 76.1%
